# Assay results taken from the OligoGym collection.
# Bases are written 5' to 3'; sugars and linkages follow in the same order, as letters with counts (s phosphorothioate, o phosphodiester; PS: all linkages phosphorothioate). C may stand for cytosine or 5-methylcytosine; the collection does not tell. l = locked nucleic acid (LNA); d = 2'-deoxy (DNA)
# Target: HIF1A
# Test: HeLa, 100 nM transfected, 24 h, mean of 3
# Settings: ASO
row,Sequence,caspase activation (% of PBS control)
1,"GTTACTGCCTTCT (sugars l2 d10 l1, PS)",109
2,"GTTACTGCCTTCTTAC (sugars ldddlddddddldlll, PS)",162
3,"GTTACTGCCTTCTTAC (sugars lddldddddddldddl, PS)",88.6
4,"TGGCAAGCATCCTGTA (sugars l3 d10 l3, PS)",273
5,"CAAGCATCCTGTA (sugars l1 d10 l2, PS)",111
6,"TGGCAAGCATCCT (sugars l2 d8 l1 d1 l1, PS)",407
7,"GTTACTGCCTTCTTAC (sugars l2 d11 l3, PS)",122
8,"GTTACTGCCTTCTTAC (sugars ldldlddddddlddll, PS)",220
9,"TGGCAAGCATCCT (sugars l2 d9 l2, PS)",434
10,"GCAAGCATCCTGT (sugars l2 d10 l1, PS)",279
11,"ACTGCCTTCTTAC (sugars l1 d2 l1 d6 l3, PS)",126
12,"GTTACTGCCTTCTTAC (sugars ldldldddddddllll, PS)",257
13,"TGGCAAGCATCCTGTA (sugars l5 d6 l2 d1 l2, PS)",367
14,"GTTACTGCCTTCTTAC (sugars l5 d10 l1, PS)",284
15,"TGGCAAGCATCCTGTA (sugars ldddlddddddlldll, PS)",285
16,"GTTACTGCCTTCTTAC (sugars l1 d3 l1 d6 l5, PS)",359
17,"GTTACTGCCTTCTTAC (sugars l5 d7 l1 d2 l1, PS)",446
18,"GTTACTGCCTTCTTAC (sugars l4 d9 l3, PS)",160
19,"GTTACTGCCTTCTTAC (sugars ldlddddddddldldl, PS)",145
20,"GTTACTGCCTTCTTAC (sugars l1 d1 l2 d7 l5, PS)",361
21,"TGGCAAGCATCCTGTA (sugars lldlldddddddlddl, PS)",459
22,"GCAAGCATCCTGT (sugars l2 d8 l3, PS)",401
23,"GCAAGCATCCTGT (sugars lddlddddddldl, PS)",109
24,"TGGCAAGCATCCT (sugars l3 d7 l1 d1 l1, PS)",268

row,Sequence,caspase activation (% of PBS control)
1,"GGCAAGCATCCTG (sugars l1 d2 l1 d6 l3, PS)",397
2,"TGGCAAGCATCCT (sugars l1 d1 l1 d8 l2, PS)",145
3,"GTTACTGCCTTCTTAC (sugars l2 d2 l1 d6 l5, PS)",365
4,"GTTACTGCCTTCTTAC (sugars ldlldddddddllldl, PS)",365
5,"TGGCAAGCATCCTGTA (sugars llddldddddddlldl, PS)",341
6,"GTTACTGCCTTCTTAC (sugars l3 d8 l2 d1 l2, PS)",243
7,"TGGCAAGCATCCTGTA (sugars ldldldddddddlddl, PS)",226
8,"TGGCAAGCATCCT (sugars l1 d1 l2 d6 l3, PS)",260
9,"ACTGCCTTCTTAC (sugars l3 d7 l3, PS)",403
10,"TGGCAAGCATCCTGTA (sugars lddllddddddllldl, PS)",416
11,"GTTACTGCCTTCTTAC (sugars l2 d12 l2, PS)",103
12,"GTTACTGCCTTCTTAC (sugars l2 d2 l1 d9 l2, PS)",138
13,"TGGCAAGCATCCTGTA (sugars l2 d10 l1 d2 l1, PS)",377
14,"TGGCAAGCATCCTGTA (sugars l2 d9 l1 d3 l1, PS)",413
15,"CAAGCATCCTGTA (sugars l2 d8 l1 d1 l1, PS)",175
16,"GTTACTGCCTTCTTAC (sugars l4 d8 l1 d1 l2, PS)",218
17,"GTTACTGCCTTCTTAC (sugars lldldddddddllddl, PS)",196
18,"GTTACTGCCTTCTTAC (sugars ldlddddddddddldl, PS)",119
19,"GTTACTGCCTTCTTAC (sugars l2 d2 l1 d8 l3, PS)",237
20,"GTTACTGCCTTCTTAC (sugars l2 d1 l2 d10 l1, PS)",161
21,"TGGCAAGCATCCTGTA (sugars lldldddddddllddl, PS)",309
22,"TGGCAAGCATCCTGTA (sugars l3 d1 l1 d10 l1, PS)",354
23,"GTTACTGCCTTCTTAC (sugars l3 d8 l1 d2 l2, PS)",204
24,"TTACTGCCTTCTT (sugars l1 d1 l2 d6 l3, PS)",237

row,Sequence,caspase activation (% of PBS control)
1,"TGGCAAGCATCCTGTA (sugars l1 d1 l3 d7 l4, PS)",395
2,"GTTACTGCCTTCT (sugars l1 d2 l1 d7 l2, PS)",136
3,"GTTACTGCCTTCTTAC (sugars ldldlddddddllldl, PS)",354
4,"GTTACTGCCTTCTTAC (sugars l1 d3 l1 d7 l4, PS)",259
5,"ACTGCCTTCTTAC (sugars l1 d9 l3, PS)",140
6,"TGGCAAGCATCCTGTA (sugars l4 d7 l1 d1 l3, PS)",522
7,"GTTACTGCCTTCTTAC (sugars l2 d9 l3 d1 l1, PS)",333
8,"CAAGCATCCTGTA (sugars l3 d7 l3, PS)",437
9,"GTTACTGCCTTCTTAC (sugars l1 d2 l2 d10 l1, PS)",185
10,"ACTGCCTTCTTAC (sugars l2 d9 l2, PS)",167
11,"GCAAGCATCCTGT (sugars lldlddddddldl, PS)",209
12,"TGGCAAGCATCCTGTA (sugars l2 d10 l1 d1 l2, PS)",376
13,"GTTACTGCCTTCTTAC (sugars lldllddddddllddl, PS)",356
14,"TGGCAAGCATCCTGTA (sugars l3 d1 l1 d7 l4, PS)",377
15,"TGGCAAGCATCCTGTA (sugars l2 d2 l1 d8 l3, PS)",397
16,"TGGCAAGCATCCTGTA (sugars l5 d8 l1 d1 l1, PS)",401
17,"GTTACTGCCTTCTTAC (sugars l1 d12 l3, PS)",100
18,"TGGCAAGCATCCTGTA (sugars l1 d2 l1 d7 l5, PS)",416
19,"GTTACTGCCTTCTTAC (sugars ldllldddddddldll, PS)",387
20,"TTACTGCCTTCTT (sugars l3 d7 l3, PS)",291
21,"GGCAAGCATCCTG (sugars l4 d6 l1 d1 l1, PS)",607
22,"CAAGCATCCTGTA (sugars l1 d9 l1 d1 l1, PS)",92.1
23,"TGGCAAGCATCCTGTA (sugars llldlddddddlddll, PS)",348
24,"GTTACTGCCTTCTTAC (sugars lddldddddddllldl, PS)",227
